ChEMBL document CHEMBL4196030, “Enediynes bearing polyfluoroaryl sulfoxide as new antiproliferative agents with dual targeting of microtubules and DNA” (Eur J Med Chem, 2018)
Active and inactive are the calls of the source. The rule behind the calls is not given here.

Key:
[1] = tested on: MIA PaCa-2; experiment: Antiproliferative activity against human MIAPaCa2 cells after 70 hrs by alamar blue assay; assay type: functional, cell-based; conditions: MIA PaCa-2, 70 h
[2] = tested on: MIA PaCa-2; experiment: Antiproliferative activity against human MIAPaCa2 cells preincubated for 4 hrs followed by 0.6 J/cm2 light irradiation for 10 mins and measured after 70 hrs by alamar blue assay; assay type: functional, cell-based; conditions: MIA PaCa-2, light or radiation study
[3] = Selectivity ratio of IC50 for antiproliferative activity against human MIAPaCa2 cells under dark condition to IC50 for antiproliferative activity against human MIAPaCa2 cells under 0.6 J/cm2 light irradiation; assay type: functional, MIA PaCa-2
[4] = tested on: A549; experiment: Disruption of microtubule network in human A549 cells at 5 times antiproliferative IC50 after 1 to 12 hrs by immunofluorescence assay; assay type: cell-based
[5] = species on record: Homo sapiens; experiment: Disruption of microtubule network in human MIAPaCa2 cells at 5 times antiproliferative IC50 after 1 to 12 hrs by immunofluorescence assay; assay type: cell-based
[6] = tested on: BEAS-2B; experiment: Antiproliferative activity against human BEAS2B cells after 70 hrs by alamar blue assay; assay type: cell-based
[7] = tested on: BEAS-2B; experiment: Cytotoxicity against human BEAS2B cells assessed as reduction in cell viability after 70 hrs by alamar blue assay; assay type: cell-based
[8] = tested on: HBL-100; experiment: Antiproliferative activity against human HBL100 cells after 70 hrs by alamar blue assay; assay type: cell-based; conditions: HBL-100, 70 h
[9] = tested on: HBL-100; experiment: Cytotoxicity against human HBL100 cells assessed as reduction in cell viability after 70 hrs by alamar blue assay; assay type: cell-based; conditions: HBL-100, 70 h
[10] = tested on: HUVEC; experiment: Antiproliferative activity against HUVEC after 70 hrs by alamar blue assay; assay type: cell-based; conditions: Homo sapiens
[11] = tested on: HUVEC; experiment: Cytotoxicity against HUVEC assessed as reduction in cell viability after 70 hrs by alamar blue assay; assay type: cell-based; conditions: Homo sapiens
[12] = tested on: MIA PaCa-2; experiment: Cytotoxicity against human MIAPaCa2 cells assessed as reduction in cell viability after 70 hrs by alamar blue assay; assay type: cell-based; conditions: MIA PaCa-2, 70 h
[13] = Ratio of IC50 for antiproliferative activity against human BEAS2B cells to IC50 for cytotoxicity against human BEAS2B cells; assay type: cell-based, BEAS-2B; conditions: read-out: Ratio IC50
[14] = Ratio of IC50 for antiproliferative activity against human HBL100 cells to IC50 for cytotoxicity against human HBL100 cells; assay type: cell-based, HBL-100; conditions: read-out: Ratio IC50
[15] = Ratio of IC50 for antiproliferative activity against human MIAPaCa2 cells to IC50 for cytotoxicity against human MIAPaCa2 cells; design: species or system MIA PaCa-2
[16] = tested on: A498; experiment: Disruption of microtubule network in human A498 cells at 5 times antiproliferative IC50 after 1 to 12 hrs by immunofluorescence assay; assay type: cell-based
[17] = Induction of supercoiled plasmid complementary DNA3 cleavage at 100 uM after 1 hr by gel electrophoresis method
[18] = tested on: MIA PaCa-2; experiment: Potency index, ratio of 5-fluorouracil IC50 to compound IC50 for antiproliferative activity against human MIAPaCa2 cells; assay type: functional
[19] = tested on: MDA-MB-231; experiment: Antiproliferative activity against human MDA-MB-231 cells after 70 hrs by alamar blue assay; assay type: functional, cell-based; conditions: MDA-MB-231, 70 h
[20] = tested on: K562; experiment: Antiproliferative activity against human K562 cells after 70 hrs by alamar blue assay; assay type: functional, cell-based; conditions: K562, 70 h
[21] = tested on: MOLT-4; experiment: Antiproliferative activity against human MOLT4 cells after 70 hrs by alamar blue assay; assay type: functional, cell-based; conditions: MOLT-4, 70 h
[22] = tested on: A549; experiment: Antiproliferative activity against human A549 cells after 70 hrs by alamar blue assay; assay type: functional, cell-based; conditions: A549, 70 h
[23] = tested on: A498; experiment: Antiproliferative activity against human A498 cells after 70 hrs by alamar blue assay; assay type: functional, cell-based; conditions: A498, 70 h
[24] = tested on: Caco-2; experiment: Antiproliferative activity against human Caco2 cells after 70 hrs by alamar blue assay; assay type: functional, cell-based; conditions: Caco-2, 70 h
[25] = tested on: PC-3; experiment: Antiproliferative activity against human PC3 cells after 70 hrs by alamar blue assay; assay type: functional, cell-based; conditions: PC-3, 70 h
[26] = tested on: A-431; experiment: Antiproliferative activity against human A431 cells after 70 hrs by alamar blue assay; assay type: functional, cell-based; conditions: A-431, 70 h
[27] = Antiproliferative activity against human GERL3.0 cells after 70 hrs by alamar blue assay; assay type: functional, cell-based
[28] = Induction of supercoiled plasmid complementary DNA3 cleavage at 100 uM after 1 hr under LED light irradiation by gel electrophoresis method
[29] = tested on: MDA-MB-231; experiment: Antiproliferative activity against human MDA-MB-231 cells preincubated for 4 hrs followed by 0.6 J/cm2 light irradiation for 10 mins and measured after 70 hrs by alamar blue assay; assay type: functional, cell-based; conditions: MDA-MB-231, light or radiation study
[30] = tested on: MOLT-4; experiment: Antiproliferative activity against human MOLT4 cells preincubated for 4 hrs followed by 0.6 J/cm2 light irradiation for 10 mins and measured after 70 hrs by alamar blue assay; assay type: functional, cell-based; conditions: MOLT-4, light or radiation study
[31] = tested on: A549; experiment: Antiproliferative activity against human A549 cells preincubated for 4 hrs followed by 0.6 J/cm2 light irradiation for 10 mins and measured after 70 hrs by alamar blue assay; assay type: functional, cell-based; conditions: A549, light or radiation study
[32] = tested on: A498; experiment: Antiproliferative activity against human A498 cells preincubated for 4 hrs followed by 0.6 J/cm2 light irradiation for 10 mins and measured after 70 hrs by alamar blue assay; assay type: functional, cell-based; conditions: A498, light or radiation study
[33] = tested on: Caco-2; experiment: Antiproliferative activity against human Caco2 cells preincubated for 4 hrs followed by 0.6 J/cm2 light irradiation for 10 mins and measured after 70 hrs by alamar blue assay; assay type: functional, cell-based; conditions: Caco-2, light or radiation study
[34] = tested on: PC-3; experiment: Antiproliferative activity against human PC3 cells preincubated for 4 hrs followed by 0.6 J/cm2 light irradiation for 10 mins and measured after 70 hrs by alamar blue assay; assay type: functional, cell-based; conditions: PC-3, light or radiation study
[35] = tested on: A-431; experiment: Antiproliferative activity against human A431 cells preincubated for 4 hrs followed by 0.6 J/cm2 light irradiation for 10 mins and measured after 70 hrs by alamar blue assay; assay type: functional, cell-based; conditions: A-431, light or radiation study
[36] = Antiproliferative activity against human GERL3.0 cells preincubated for 4 hrs followed by 0.6 J/cm2 light irradiation for 10 mins and measured after 70 hrs by alamar blue assay; assay type: functional, cell-based; conditions: light or radiation study
[37] = Selectivity ratio of IC50 for antiproliferative activity against human MDA-MB-231 cells under dark condition to IC50 for antiproliferative activity against human MDA-MB-231 cells under 0.6 J/cm2 light irradiation; assay type: functional
[38] = Selectivity ratio of IC50 for antiproliferative activity against human MOLT4 cells under dark condition to IC50 for antiproliferative activity against human MOLT4 cells under 0.6 J/cm2 light irradiation; assay type: functional, MOLT-4
[39] = Selectivity ratio of IC50 for antiproliferative activity against human A549 cells under dark condition to IC50 for antiproliferative activity against human A549 cells under 0.6 J/cm2 light irradiation; assay type: functional
[40] = Selectivity ratio of IC50 for antiproliferative activity against human Caco2 cells under dark condition to IC50 for antiproliferative activity against human Caco2 cells under 0.6 J/cm2 light irradiation; assay type: functional, Caco-2
[41] = Selectivity ratio of IC50 for antiproliferative activity against human PC3 cells under dark condition to IC50 for antiproliferative activity against human PC3 cells under 0.6 J/cm2 light irradiation; assay type: functional, PC-3
[42] = Selectivity ratio of IC50 for antiproliferative activity against human A431 cells under dark condition to IC50 for antiproliferative activity against human A431 cells under 0.6 J/cm2 light irradiation; assay type: functional, A-431
[43] = Selectivity ratio of IC50 for antiproliferative activity against human GERL3.0 cells under dark condition to IC50 for antiproliferative activity against human GERL3.0 cells under 0.6 J/cm2 light irradiation; assay type: functional
[44] = Selectivity ratio of IC50 for antiproliferative activity against human A498 cells under dark condition to IC50 for antiproliferative activity against human A498 cells under 0.6 J/cm2 light irradiation; assay type: functional

## CCCCC(=O)OCC#Cc1ncccc1C#CC[S+]([O-])c1c(F)c(F)c(F)c(F)c1F (stereo unspecified)
[1]
  IC50: 3000 nM
[2]
  IC50: 500 nM
[3]
  Ratio IC50: 6

## [O-][S+](CC#Cc1cc2ccccc2cc1C#CCO)c1c(F)c(F)c(F)c(F)c1F (stereo unspecified)
[1]
  IC50: 4700 nM
[4]
  Activity: Active
[5]
  Activity: Active

## [O-][S+](CC#Cc1cccnc1C#CCOC1CCCCO1)c1c(F)c(F)c(F)c(F)c1F (stereo unspecified)
[1]
  IC50: 1000 nM

## COc1cccc2c1C(=O)c1c(O)c3c(c(O)c1C2=O)C[C@@](O)(C(=O)CO)C[C@@H]3O[C@H]1C[C@H](N)[C@H](O)[C@H](C)O1 [DOXORUBICIN]
[6]
  IC50: 2400 nM
[7]
  IC50: 18600 nM
[8]
  IC50: 80 nM
[9]
  IC50: 8500 nM
[10]
  IC50: 150 nM
[11]
  IC50: 480 nM
[12]
  IC50: 3100 nM

## [O-][S+](CC#Cc1c(C#CCO)sc2ccccc12)c1c(F)c(F)c(F)c(F)c1F (stereo unspecified)
[1]
  IC50: 2200 nM

## [N-]=[N+]=NCC#Cc1ccccc1C#CC[S+]([O-])c1c(F)c(F)c(F)c(F)c1F (stereo unspecified)
[1]
  IC50: 2400 nM

## [O-][S+](CC#Cc1ccccc1)c1c(F)c(F)c(F)c(F)c1F (stereo unspecified)
[1]
  IC50: 7800 nM

## COc1ccc(NS(=O)(=O)c2c(F)c(F)c(F)c(F)c2F)cc1F [BATABULIN]
[6]
  IC50: 12200 nM
[7]
  IC50: > 40000 nM
[13]
  selectivity ratio: > 3.2
[8]
  IC50: 200 nM
[9]
  IC50: > 40000 nM
[14]
  selectivity ratio: > 190
[10]
  IC50: 6300 nM
[11]
  IC50: 16400 nM
[12]
  IC50: 47300 nM
[15]
  Ratio IC50: 35.8
[16]
  Activity: Active

## [O-][S+](CC#Cc1ccccc1C#CCO)c1c(F)c(F)c(F)c(F)c1F (stereo unspecified)
[1]
  IC50: 2600 nM
[17]
  Activity: inactive
[4]
  Activity: Active
[5]
  Activity: Active

## COCCOCOCC#Cc1ncccc1C#CC[S+]([O-])c1c(F)c(F)c(F)c(F)c1F (stereo unspecified)
[1]
  IC50: 800 nM

## [O-][S+](CC#Cc1cccnc1C#CCO)c1c(F)c(F)c(F)c(F)c1F (stereo unspecified)
[1]
  IC50: 800 nM
[18]
  Ratio IC50: 6
[19]
  IC50: 1200 nM
[20]
  IC50: 700 nM
[21]
  IC50: 600 nM
[22]
  IC50: 1600 nM
[23]
  IC50: 3400 nM
[24]
  IC50: 1000 nM
[25]
  IC50: 1400 nM
[26]
  IC50: 1500 nM
[27]
  IC50: 900 nM
[6]
  IC50: 1000 nM
[7]
  IC50: 19600 nM
[13]
  selectivity ratio: 18.6
[8]
  IC50: 1400 nM
[9]
  IC50: 27100 nM
[14]
  selectivity ratio: 19.3
[10]
  IC50: 600 nM
[11]
  IC50: 8800 nM
[12]
  IC50: 20500 nM
[15]
  Ratio IC50: 25.3
[17]
  Activity: inactive
[16]
  Activity: Active
[4]
  Activity: Active
[5]
  Activity: Active
[28]
  Activity: Active
[29]
  IC50: 500 nM
[30]
  IC50: 400 nM
[31]
  IC50: 800 nM
[32]
  IC50: 3200 nM
[33]
  IC50: 500 nM
[34]
  IC50: 500 nM
[35]
  IC50: 1100 nM
[36]
  IC50: 600 nM
[2]
  IC50: 200 nM
[3]
  Ratio IC50: 3.7
[37]
  Ratio IC50: 2.2
[38]
  Ratio IC50: 1.6
[39]
  Ratio IC50: 2
[40]
  Ratio IC50: 2
[41]
  Ratio IC50: 2.5
[42]
  Ratio IC50: 1.3
[43]
  Ratio IC50: 1.4
[44]
  Ratio IC50: 1.1

## COc1cc2c(c(OC)c1OC)-c1ccc(OC)c(=O)cc1[C@@H](NC(C)=O)CC2
[16]
  Activity: Active

## O=S(=O)(CC#Cc1ccccc1C#CCO)c1c(F)c(F)c(F)c(F)c1F
[1]
  IC50: 3900 nM

## Nc1ccn([C@@H]2O[C@H](CO)[C@@H](O)C2(F)F)c(=O)n1 [GEMCITABINE]
[1]
  IC50: 120 nM

## [O-][S+](CC#Cc1ccccc1C#CCCCCO)c1c(F)c(F)c(F)c(F)c1F (stereo unspecified)
[1]
  IC50: > 10000 nM

## [O-][S+](CC#Cc1ccccc1C#CCO)c1ccccc1 (stereo unspecified)
[1]
  IC50: 15900 nM
[6]
  IC50: 29500 nM
[7]
  IC50: 81900 nM
[13]
  selectivity ratio: 2.8
[8]
  IC50: 19000 nM
[9]
  IC50: 35400 nM
[14]
  selectivity ratio: 1.8
[10]
  IC50: 79800 nM
[11]
  IC50: 66200 nM
[12]
  IC50: 124000 nM
[15]
  Ratio IC50: 7.8
[16]
  Activity: inactive
[4]
  Activity: inactive
[5]
  Activity: inactive

## CCOC(=O)c1ccc(C#CCO)c(C#CC[S+]([O-])c2c(F)c(F)c(F)c(F)c2F)c1 (stereo unspecified)
[1]
  IC50: 1600 nM
